Patent US5827562A, “Sweetener salts” (Holland Sweetener Company V.o.F., priority 1995, dated 1998)
Several values for one entry are separate records, joined by “and”; a condition that tells them apart may be missing. Equal values may be shown once. Where a name gives a salt, the structure may show the parent alone. Read-outs that look alike come from different tables or passages of the source. Peptide text beside a SMILES is read from it.

Key:
[1] = usual moisture content of the individual component; cited from earlier work
[2] = Thermal stability test: open dish in thermostatted oven, decomposition products (DKP, AP) by hplc; assay type: physicochemical; details: for DKP content: initial content, relative to dry product
Description: d. Thermal stability tests were conducted by allowing samples of a relevant product to stand for the indicated times in an open dish placed in a thermostatted oven at the relevant temperature, and to determine, via hplc, the concentrations of possible decomposition products such as, in the case of analysis of aspartame salts, diketopiperazine (DKP) and aspartyl-phenylalanine (AP) in the initial and the final sample.
(§1) A number of the products obtained in the above-mentioned experiments and comparative experiments were subjected to further analysis of characterization. The following values were determined: (a) thermal stability (at 70° C. and/or at 120° C.) and (b) dissolution rate. By way of comparison the same was done for a number of reference substances. As regards the thermal stability of the APM containing substances, attention was paid in particular to the increase in the diketopiperazine decomposition product (DKP) in wt.% relative to the dry product.

[3] = Moisture content, Karl-Fischer water determination; assay type: physicochemical; details: dried product
Description: b. The moisture content of the products obtained was determined by means of the Karl-Fischer water determination.

[4] = Dissolution rate, spectrophotometric dissolution curve in pH 5.0 buffer; assay type: physicochemical; details: 23° C.
Description: c. The dissolution rate was found through spectrophotometric determination of the dissolution curve, by introducing 0.1 wt.% of the product (or a screen fraction thereof at 23° C. into a pH 5.0 buffer (Merck titrisol, pH 5.0, in 1 liter of Milli-Q water) whilst stirring continuously.
as §1, with “product. It was also established that the salts included in the table are not hygroscopic.” for “product.”

[5] = general statement, aspartame or its derivatives; cited from earlier work
[6] = Solubility in water; assay type: physicochemical; details: aqueous reaction medium

Row | Compound | moisture content [3] | Increase in DKP content ([2]; 1 hour, 120° C.) [wt. %] | Increase in DKP content ([2]; 70 hours, 70° C.) [wt. %] | DKP content [2] [wt. %] | moisture content ([3]; table 1) [wt. %] | further results
1 | O=S(=O)(O)NC1CCCCC1 [cyclamate-Ca] | – | – | – | – | – | moisture content [1]: up to 9%
2 | CC1=CC(=O)NS(=O)(=O)O1 [AceH] | – | – | – | – | – | thermal stability, observation in words ([2]; 1 hour, 120° C.): yellow/orange colour; strong degradation; hydrogen sulphide odour
3 | CC1=CC(=O)NS(=O)(=O)O1.COC(=O)[C@H](Cc1ccccc1)NC(=O)[C@@H](N)CC(=O)O [Exp. 5a., 1:1 salt of APM and acesulfamic acid] (H-Asp-Phe-OMe) | 0.09% | – | – | – | – | –
4 | CC1=CC(=O)NS(=O)(=O)O1.COC(=O)[C@H](Cc1ccccc1)NC(=O)[C@@H](N)CC(=O)O [exp. 2a., 1:1 salt of APM and acesulfamic acid] (H-Asp-Phe-OMe) | 0.11% | 0 | 0 | 0.01 | 0.11 | Dissolution rate ([4]; 0.1 wt.% product, stirring): 1 min
5 | COC(=O)[C@H](Cc1ccccc1)NC(=O)[C@@H](N)CC(=O)O [APM granulate, reference compound] (H-Asp-Phe-OMe) | – | 2.09 | 0.75 | 0.18 | 2.30 | Dissolution rate ([4]; 200-700 μm fraction, 0.1 wt.%): 7 min; Dissolution rate ([4]; <200 μm fraction, 0.1 wt.%): 4 min
6 | CC1=CC(=O)NS(=O)(=O)O1.COC(=O)[C@H](Cc1ccccc1)NC(=O)[C@@H](N)CC(=O)O [Exp. 3a, 1:1 salt of APM and acesulfamic acid] (H-Asp-Phe-OMe) | 2.5% | – | – | – | – | –
7 | COC(=O)[C@H](Cc1ccccc1)NC(=O)[C@@H](N)CC(=O)O [APM powder] (H-Asp-Phe-OMe) | – | 2.34 | 0.20 | 0.04 | 2.60 | Dissolution rate ([4]; 0.1 wt.% product, stirring): 2 to 3 min
8 | COC(=O)[C@H](Cc1ccccc1)NC(=O)[C@@H](N)CC(=O)O [APM, Δ-L-aspartyl-L-phenylalanine methyl ester] (H-Asp-Phe-OMe) | – | – | – | – | – | thermal stability [5]: relatively unfavorable thermal stability
9 | CC1=CC(=O)NS(=O)(=O)O1.COC(=O)[C@H](Cc1ccccc1)NC(=O)[C@@H](N)CC(=O)O [comp. exp. 1C, 1:1 salt of APM and acesulfamic acid] (H-Asp-Phe-OMe) | 0.76% | 2.04 | 1.27 | 0.35 | 0.76 | thermal stability, observation in words ([2]; 1 hour, 120° C.): yellow/yellowbrown colour, with some degradation of the Ace part; thermal stability, observation in words ([2]; 70 hours, 70° C.): pale yellow; with hplc some degradation of the Ace part
10 | COC(=O)C(Cc1ccccc1)NC(=O)C(N)CC(=O)O.O=C1NS(=O)(=O)c2ccccc21 (stereo not drawn) [Exp. 4b., 1:1 salt of APM and saccharin] (H-Asp-Phe-OMe; configuration not given here) | 0.04% and 0.05% | – | – | – | – | –
11 | CC1=CC(=O)NS(=O)(=O)O1.COC(=O)[C@H](Cc1ccccc1)NC(=O)[C@@H](N)CC(=O)O [Exp. 2k, 1:1 salt of APM and acesulfamic acid] (H-Asp-Phe-OMe) | 0.10% | – | – | – | – | –
12 | COC(=O)C(Cc1ccccc1)NC(=O)C(N)CC(=O)O.O=C1NS(=O)(=O)c2ccccc21 (stereo not drawn) [Exp. 3b, 1:1 salt of APM and saccharinate] (H-Asp-Phe-OMe; configuration not given here) | 0.27% | – | – | – | – | –
13 | CC1=CC(=O)NS(=O)(=O)O1.COC(=O)[C@H](Cc1ccccc1)NC(=O)[C@@H](N)CC(=O)O [Exp. 2l, 1:1 salt of APM and acesulfamic acid] (H-Asp-Phe-OMe) | 0.07% | – | – | – | – | –
14 | CC1=CC(=O)NS(=O)(=O)O1.COC(=O)[C@H](Cc1ccccc1)NC(=O)[C@@H](N)CC(=O)O [comp. exp. 1D, 1:1 salt of APM and acesulfamic acid] (H-Asp-Phe-OMe) | 0.89% | 2.18 | 0.52 | 0.32 | 0.89 | thermal stability, observation in words ([2]; 1 hour, 120° C.): yellow/yellowbrown colour, with some degradation of the Ace part; thermal stability, observation in words ([2]; 70 hours, 70° C.): pale yellow; with hplc some degradation of the Ace part
15 | O=C1NS(=O)(=O)c2ccccc21 [SacH, 3-oxo-2,3-dihydro-1,2-benzisothiazole-1,1-dioxide] | – | – | – | – | – | thermal stability, observation in words ([2]; 1 hour, 120° C.): stable
16 | COC(=O)[C@H](Cc1ccccc1)NC(=O)[C@@H](N)CC(=O)O.O=C1NS(=O)(=O)c2ccccc21 [comp. exp. 1B, 1:1 salt of APM and SacH] (H-Asp-Phe-OMe) | – | – | 0 | 0.21 | – | –
17 | O=C1NS(=O)(=O)c2ccccc21 [saccharin-Na, sodium 2,3-dihydro-3-oxobenzisosulfonazole] | – | – | – | – | – | moisture content [1]: up to 15%
18 | CC1=CC(=O)NS(=O)(=O)O1.COC(=O)[C@H](Cc1ccccc1)NC(=O)[C@@H](N)CC(=O)O [exp. 4a., 1:1 salt of APM and acesulfamic acid] (H-Asp-Phe-OMe) | 0.12% | 0 | – | 0.01 | 0.12 | thermal stability, observation in words ([2]; 1 hour, 120° C.): fully stable, white product; Dissolution rate ([4]; 0.1 wt.% product, stirring): 1 min
19 | COC(=O)[C@H](Cc1ccccc1)NC(=O)[C@@H](N)CC(=O)O.O=C1NS(=O)(=O)c2ccccc21 [exp. 1a., 1:1 salt of APM and SacH] (H-Asp-Phe-OMe) | 0.03% | 0 | 0 | 0.01 | 0.03 | Dissolution rate ([4]; 0.1 wt.% product, stirring): 1 min
20 | COC(=O)[C@H](Cc1ccccc1)NC(=O)[C@@H](N)CC(=O)O [exp. 1b., 1:1 salt of APM and CycH] (H-Asp-Phe-OMe) | 0.16% | 0.14 | – | 0.18 | 0.16 | solubility of the sweetening salt [6]: high solubility
21 | CC1=CC(=O)NS(=O)(=O)O1.COC(=O)[C@H](Cc1ccccc1)NC(=O)[C@@H](N)CC(=O)O [exp. 4c., 1:1 salt of APM and acesulfamic acid] (H-Asp-Phe-OMe) | 0.04% | 0 | 0 | 0.01 | 0.04 | thermal stability, observation in words ([2]; 1 hour, 120° C.): fully stable, white product; Dissolution rate ([4]; 0.1 wt.% product, stirring): 1 min
22 | COC(=O)[C@H](Cc1ccccc1)NC(=O)[C@@H](N)CC(=O)O.O=C1NS(=O)(=O)c2ccccc21 [comp. exp. 1A, 1:1 salt of APM and SacH] (H-Asp-Phe-OMe) | – | – | 0 | 0.53 | – | –
23 | CC1=CC(=O)NS(=O)(=O)O1.COC(=O)[C@H](Cc1ccccc1)NC(=O)[C@@H](N)CC(=O)O [Experiment 6, 1:1 salt of APM and acesulfamic acid] (H-Asp-Phe-OMe) | 0.15% | – | – | – | – | –
